Read-outs that look alike come from different tables or passages of the source.

The target of test [1] is T1, human norepinephrine transporter (Homo sapiens, UniProt P23975).
T1 construct: expressed in transfected cells; host or cells: HEK-293
The test can be described thus: hNET Receptor Binding ([125I]-RTI-55 displacement, HEK-293 membranes). The settings on record: hNET, HEK-293 cell membranes, 50 pM [125I]-RTI-55, Ki from IC50 by Cheng-Prusoff; read-out: NET Ki. As to the method:
Cell pastes of HEK-293 cells transfected with a human norepinephrine transporter cDNA were prepared. The cell pastes were resuspended in 400 to 700 mL of Krebs-HEPES assay buffer (25 mM HEPES, 122 mM NaCl, 3 mM KCl, 1.2 mM MgSO4, 1.3 mM CaCl2, and 11 mM glucose, pH 7.4) with a Polytron homogenizer at setting 7 for 30 seconds. Aliquots of membranes (5 mg/mL protein) were stored in liquid nitrogen until used.
The binding assay was set up in Beckman deep-well polypropylene plates with a total volume of 250 μL containing: compound of one of the Examples (10^−5M to 10^−12M), cell membranes, and 50 pM [^125I]-RTI-55 (Perkin Elmer, NEX-272; specific activity 2200 Ci/mmol). The reaction was incubated by gentle agitation for 90 minutes at room temperature and was terminated by filtration through Whatman GF/C filter plates using a Brandel 96-well plate harvester. Scintillation fluid (100 μL) was added to each well, and bound [^125I]-RTI-55 was determined using a Wallac Trilux Beta Plate Counter. Test compounds were run in duplicate, and specific binding was defined as the difference between binding in the presence and absence of 10 μM desipramine.
(§1) Excel and GraphPad Prism software were used for data calculation and analysis. IC50 values were converted to Ki values using the Cheng-Prusoff equation.

Test [2] deals with capsaicin-induced mechanical allodynia in a rat. The test can be described thus: rat model of capsaicin-induced mechanical allodynia. Format: in vivo. To be noted: sc, read-out: % Inhibition of Allodynia. Here is the method:
Compounds of the present invention may be assayed for their ability to alleviate capsaicin-induced mechanical allodynia in a rat (e.g., Sluka (2002) J of Neuroscience, 22(13): 5687-5693). For example, a rat model of capsaicin-induced mechanical allodynia was carried out as follows:
On day 0, male Sprague-Dawley rats (about 150 g each) in the dark cycle were placed in suspended wire-bottom cages and allowed to acclimate for 0.5 hour in a darkened, quiet room. The day 0 paw withdrawal threshold (PWT) was determined on the left hind paw by Von Frey hair assessment using the Dixon up and down method. After assessment, the plantar muscle of the right hind paw was injected with 100 μL capsaicin (0.25% (w/v) in 10% ethanol, 10% Tween 80, in sterile saline). On day 6 the PWT of the left hind paw (contralateral from injection site) was determined for each animal. Animals from the day 6 prereads with PWT ≦11.7 g were considered allodynic responders and were regrouped so that each cage had similar mean PWT values. On day 7, responders were dosed subcutaneously with 10 mg compound/kg body weight, or with vehicle alone. The vehicle was phosphate buffered saline containing 2% Cremophor® EL (BASF Corp., Florham Park, N.J.). The contralateral PWT values were determined at 1 hour after the single dose, with the investigator blinded to the dosing scheme.
For each animal, the day 6 PWT value was subtracted from the 1 hour PWT value to give a delta PWT value that represents the change in PWT due to the 1 hour drug treatment. In addition, the day 6 PWT was subtracted from the day 0 PWT to give the baseline window of allodynia present in each animal. To determine % inhibition of allodynia of each animal normalized for vehicle controls, the following formula was used: % Inhibition of Allodynia =100× [(Delta PWT(drug)—mean Delta PWT(vehicle))/(Baseline—mean Delta PWT(vehicle))].
The mean percent inhibition of allodynia values (for eight animals assayed for each compound) +/− the standard error of the mean (SEM) are shown in Table 2.

Test [3] addresses T2, human serotonin transporter (Homo sapiens, UniProt P31645).
T2 construct: expressed in transfected cells; host or cells: HEK-293
The test can be described thus: hSERT Receptor Binding ([125I]-RTI-55 displacement, HEK-293 membranes). To be noted: hSERT, HEK-293 cell membranes, 50 pM [125I]-RTI-55, Ki from IC50 by Cheng-Prusoff; read-out: SERT Ki. As to the method:
Cell pastes of HEK-293 cells transfected with a human serotonin transporter cDNA were prepared. The cell pastes were resuspended in 400 to 700 mL of Krebs-HEPES assay buffer (25 mM HEPES, 122 mM NaCl, 3 mM KCl, 1.2 mM MgSO4, 1.3 mM CaCl2, and 11 mM glucose, pH 7.4) with a Polytron homogenizer at Setting 7 for 30 seconds. Aliquots of membranes (about 2.5 mg/mL protein) were stored in liquid nitrogen until used.
Assays were set up in FlashPlates pre-coated with 0.1 % PEI in a total volume of 250 μL containing: compound of one of the Examples (10^−5M to 10^−12M), cell membanes, and 50 pM [^125l]-RTI-55 (Perkin Elmer, NEX-272; specific activity 2200 Ci/mmol). The reaction was incubated and gently agitated for 90 minutes at room temperature, and terminated by removal of assay volume. Plates were covered, and bound [^125I]-RTI-55 was determined using a Wallac Trilux Beta Plate Counter. Test compounds were run in duplicate, and specific binding was defined as the difference between binding in the presence and absence of 10 μM citalopram.
as §1

Where [4] appears, read: male Sprague-Dawley rats, 10 mg/kg subcutaneously, PWT 1 hour after single dose, mean +/- SEM of eight animals, normalized for vehicle.

T2 sequence (P31645 whole entry): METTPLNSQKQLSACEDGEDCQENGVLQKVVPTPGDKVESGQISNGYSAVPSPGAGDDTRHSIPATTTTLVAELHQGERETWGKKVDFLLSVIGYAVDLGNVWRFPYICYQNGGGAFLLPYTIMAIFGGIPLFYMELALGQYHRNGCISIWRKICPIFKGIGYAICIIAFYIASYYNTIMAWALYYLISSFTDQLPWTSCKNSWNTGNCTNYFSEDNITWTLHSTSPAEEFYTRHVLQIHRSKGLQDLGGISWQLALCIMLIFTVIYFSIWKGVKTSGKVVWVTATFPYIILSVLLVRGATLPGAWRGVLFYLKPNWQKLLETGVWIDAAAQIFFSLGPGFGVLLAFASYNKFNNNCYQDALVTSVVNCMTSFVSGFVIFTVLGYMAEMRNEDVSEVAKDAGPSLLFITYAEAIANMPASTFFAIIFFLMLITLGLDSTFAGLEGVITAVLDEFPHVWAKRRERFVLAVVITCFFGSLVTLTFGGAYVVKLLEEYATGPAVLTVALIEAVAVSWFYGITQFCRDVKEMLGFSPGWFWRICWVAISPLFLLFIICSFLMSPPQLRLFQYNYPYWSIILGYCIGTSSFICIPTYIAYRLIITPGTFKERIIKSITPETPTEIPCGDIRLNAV
T1 sequence (P23975 whole entry): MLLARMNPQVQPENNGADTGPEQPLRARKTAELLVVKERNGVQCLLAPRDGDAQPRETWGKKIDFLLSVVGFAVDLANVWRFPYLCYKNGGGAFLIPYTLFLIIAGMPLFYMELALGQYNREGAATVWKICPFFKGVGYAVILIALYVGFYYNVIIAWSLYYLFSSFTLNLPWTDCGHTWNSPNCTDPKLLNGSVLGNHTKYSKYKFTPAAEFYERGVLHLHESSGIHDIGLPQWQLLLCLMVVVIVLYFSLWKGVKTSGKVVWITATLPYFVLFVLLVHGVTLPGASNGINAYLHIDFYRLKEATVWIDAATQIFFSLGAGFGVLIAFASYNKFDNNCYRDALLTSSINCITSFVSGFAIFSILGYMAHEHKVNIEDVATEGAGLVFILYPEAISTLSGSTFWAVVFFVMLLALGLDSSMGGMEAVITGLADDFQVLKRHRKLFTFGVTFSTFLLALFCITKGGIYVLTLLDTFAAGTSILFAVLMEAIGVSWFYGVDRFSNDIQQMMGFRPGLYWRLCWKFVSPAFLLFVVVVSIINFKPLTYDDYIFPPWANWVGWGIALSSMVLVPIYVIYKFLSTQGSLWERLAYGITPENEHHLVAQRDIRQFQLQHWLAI

By Ki is commonly meant the equilibrium dissociation constant of an inhibitor or competing ligand from its target. As to `CCOc1ncccc1OC[C@H]1CNCC[C@@H]1c1ccccc1` (single isomer, unassigned) [Example 1], the results for the Ki in test [1] and in test [3] were 3.83 nM and 24.3 nM, respectively. The inhibition in vivo at 10 mg/kg in test [2] (setting [4]) was 82.3%.
As to `CCOc1ncccc1OC[C@H]1CNCC[C@@H]1c1ccccc1` [Example 2, (3R,4S)-2-Ethoxy-3-(4-phenyl-piperidin-3-ylmethoxy)-pyridine], the Ki in test [1] amounted to 3290 nM; in test [3] it was 6.51 nM. Besides, the inhibition in vivo at 10 mg/kg in test [2] (setting [4]) was 1.4%.
Turning to `COc1ncccc1OC[C@@H]1CNCC[C@H]1c1ccccc1` [Example 7, (3S,4R)-2-Methoxy-3-(4-phenyl-piperidin-3-ylmethoxy)-pyridine], the Ki in test [1] turned out to be 3.34 nM; in test [3], 17.7 nM. Further, the inhibition in vivo at 10 mg/kg in test [2] (setting [4]) was found to be 67.3%.
In the same order, the values of `CCCOc1ncccc1OC[C@@H]1CNCC[C@H]1c1ccccc1` [Example 9, (3S,4R)-3-(4-Phenyl-piperidin-3-ylmethoxy)-2-propoxy-pyridine] are 3.04 nM, 17.5 nM and 29.5%.
Regarding `COCCOc1ncccc1OC[C@@H]1CNCC[C@H]1c1ccccc1` [Example 11, (3S,4R)-2-(2-Methoxy-ethoxy)-3-(4-phenyl-piperidin-3-ylmethoxy)-pyridine], the Ki in test [1] came to 4.57 nM; in test [3] it was 188 nM. Besides, the inhibition in vivo at 10 mg/kg in test [2] (setting [4]) came out at 77.3%.
In the same order, the values of `CC(C)Oc1ncccc1OC[C@@H]1CNCC[C@H]1c1ccccc1` [Example 12, (3S,4R)-2-lsopropoxy-3-(4-phenyl-piperidin-3-ylmethoxy)-pyridine] are 4.18 nM, 40.6 nM and 66.4%.
With `COCCCOc1ncccc1OC[C@@H]1CNCC[C@H]1c1ccccc1` [Example 14, (3S,4R)-2-(3-Methoxy-propoxy)-3-(4-phenyl-piperidin-3-ylmethoxy)-pyridine], the values for the Ki in test [1] and in test [3] were 12.1 nM and 164 nM, respectively. For the same molecule, the inhibition in vivo at 10 mg/kg in test [2] (setting [4]) was determined as 22.7%.
In the same order, the values of `CCCc1ncccc1OC[C@@H]1CNCC[C@H]1c1ccccc1` [Example 17, (3S,4R)-3-(4-Phenyl-piperidin-3-ylmethoxy)-2-propyl-pyridine] are 13.2 nM, 21.9 nM and 2.6%.
For `c1ccc([C@@H]2CCNC[C@H]2COc2ccnc3ccsc23)cc1` [Example 35, (3S,4R)-7-(4-Phenyl-piperidin-3-ylmethoxy)-thieno[3,2-b]pyridine], the figures for the Ki in test [1] and in test [3] were 14.6 nM and 8.4 nM, respectively. The inhibition in vivo at 10 mg/kg in test [2] (1 h) amounted to 5.5%.
For the molecule `NC(=O)c1ccc(OC[C@@H]2CNCC[C@H]2c2ccccc2)cc1` [Example 38, (3S,4R)-4-(4-Phenyl-piperidin-3-ylmethoxy)-benzamide], the values for the inhibitory constant (Ki) in test [1] and in test [3] were 12.1 nM and 174 nM, respectively. In addition, the inhibition in vivo at 10 mg/kg in test [2] (setting [4]) came to 0.2%.
Consider `N#Cc1ccccc1OC[C@@H]1CNCC[C@H]1c1ccccc1` [Example 42, (3S, 4R)-2-(4-Phenyl-piperidin-3-ylmethoxy)-benzonitrile], for which the Ki in test [1] came to 1.7 nM; in test [3] it was 626 nM.
`CCOc1cccnc1OC[C@@H]1CNCC[C@H]1c1ccccc1` [Example 43, (3S,4R)-3-Ethoxy-2-(4-phenyl-piperidin-3-ylmethoxy)-pyridine]: the Ki in test [1] turned out to be 14.4 nM; in test [3], 89.7 nM.
In the same order, the values of `COc1cccnc1OC[C@@H]1CNCC[C@H]1c1ccccc1` [Example 44, (3S,4R)-3-Methoxy-2-(4-phenyl-piperidin-3-ylmethoxy)-pyridine] are 33.3 nM and 158 nM.
In the same order, the values of `COc1nccnc1OC[C@@H]1CNCC[C@H]1c1ccccc1` [Example 45, (3S,4R)-2-Methoxy-3-(4-phenyl-piperidin-3-ylmethoxy)-pyrazine] are 36.5 nM and 71.8 nM.
As to `Cc1cccc(OC[C@@H]2CNCC[C@H]2c2ccccc2)n1` [Example 46, (−)-(3S,4R)-2-Methyl-6-(4-phenyl-piperidin-3-ylmethoxy)-pyridine], the Ki stood at 233 nM in test [1] and 156 nM in test [3].

The record behind these values is patent US20070142389A1, “PIPERIDINE DERIVATIVES” (PFIZER INC., priority 2005, published 2007).
